Here are results for 24 compounds from patent US10100022B2, “Sphingosine kinase inhibitors” (University of Virginia Patent Foundation, priority 2014, dated 2018).

The target in assay [1] is T1, human sphingosine kinase type 1 (hSPHK1) (Homo sapiens, UniProt Q9NYA1).
T1 construct: made in house; host or cells: Sf9 insect cells (baculovirus)
The assay is described as follows: Sphingosine kinase assay, recombinant human SPHK1 ([32P]S1P product, scintillation counting). It is filed as biochemical. The settings on record: read-out: activity hSPHK1 (range estimate of KI). The essentials: (§1)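 SPHK1 from cleared lysates of baculovirus-infected Sf9 cells, unpurified; SPHK2 partially purified from Sf9 lysates. Standard sphingosine kinase protocol; [32P]S1P product captured on cation exchange paper and counted by scintillation.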

For assay [2], the target named is T2, human sphingosine kinase type 2 (hSPHK2) (Homo sapiens, UniProt Q9NRA0).
T2 construct: purchased; host or cells: Sf9 insect cells (baculovirus)
T2 sequence (Q9NRA0 1-654): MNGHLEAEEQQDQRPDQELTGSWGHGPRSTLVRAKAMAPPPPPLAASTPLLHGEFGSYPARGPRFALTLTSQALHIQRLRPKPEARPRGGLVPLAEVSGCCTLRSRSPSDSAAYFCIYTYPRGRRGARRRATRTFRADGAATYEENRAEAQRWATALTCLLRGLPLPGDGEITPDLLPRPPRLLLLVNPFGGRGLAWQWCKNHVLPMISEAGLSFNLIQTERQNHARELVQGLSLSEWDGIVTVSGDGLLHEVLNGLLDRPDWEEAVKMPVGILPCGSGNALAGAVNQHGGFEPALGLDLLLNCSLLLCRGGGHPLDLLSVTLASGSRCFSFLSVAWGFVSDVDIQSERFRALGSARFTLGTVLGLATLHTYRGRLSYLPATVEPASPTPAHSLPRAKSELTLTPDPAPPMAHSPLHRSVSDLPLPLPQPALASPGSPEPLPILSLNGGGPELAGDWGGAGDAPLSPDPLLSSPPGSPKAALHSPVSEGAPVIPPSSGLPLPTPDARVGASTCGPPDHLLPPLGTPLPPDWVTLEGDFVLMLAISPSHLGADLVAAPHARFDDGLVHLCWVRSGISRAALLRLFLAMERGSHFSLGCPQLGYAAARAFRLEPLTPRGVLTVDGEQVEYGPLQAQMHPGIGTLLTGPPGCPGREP
The assay is described as follows: Sphingosine kinase assay, recombinant human SPHK2 ([32P]S1P product, scintillation counting). The settings on record: read-out: activity hSPHK2 (range estimate of KI). The format is biochemical. The method, boiled down: as §1

Structures can show the parent of a compound that is named as a salt.

T1 sequence (Q9NYA1 whole entry): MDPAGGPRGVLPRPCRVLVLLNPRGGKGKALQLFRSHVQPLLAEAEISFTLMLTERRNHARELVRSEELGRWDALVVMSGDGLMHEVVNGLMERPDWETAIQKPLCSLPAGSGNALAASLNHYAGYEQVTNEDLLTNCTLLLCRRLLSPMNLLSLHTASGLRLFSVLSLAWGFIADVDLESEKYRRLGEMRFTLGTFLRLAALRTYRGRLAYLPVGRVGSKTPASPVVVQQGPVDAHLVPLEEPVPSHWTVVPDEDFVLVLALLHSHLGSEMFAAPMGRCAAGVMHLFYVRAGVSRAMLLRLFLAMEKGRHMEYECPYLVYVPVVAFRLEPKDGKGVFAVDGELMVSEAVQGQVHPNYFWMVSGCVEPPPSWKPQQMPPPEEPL

One may read the Ki as a dissociation constant, usually derived from enzyme kinetics or from competition with a known ligand. As to `N=C(N)N1CCC[C@H]1c1nc(-c2ccc3cc(OCCc4cccc(C(F)(F)F)c4)ccc3c2)no1` [Compound 60A, (S)-amino(2-(3-(6-(3-(trifluoromethyl)phenethoxy)naphthalen-2-yl)-1,2,4-oxadiazol-5-yl)pyrrolidin-1-yl)methaniminium chloride], the Ki in assay [1] and in assay [2] was more than 10 µM throughout.
For the compound `CC(C)(C)c1ccc(CCc2ccc(-c3noc([C@@H]4CCCN4C(=N)N)n3)cc2C(F)(F)F)cc1` [Compound 61A], the Ki was more than 10 µM in assay [1] and less than 1 µM in assay [2].
Turning to `Cc1ccc(COc2ccc3cc(-c4noc([C@@H]5CCCN5C(=N)N)n4)ccc3c2)cc1` [Compound 64A, (S)-amino(2-(3-(6-((4-methylbenzyl)oxy)naphthalen-2-yl)-1,2,4-oxadiazol-5-yl)pyrrolidin-1-yl)methaniminium chloride], the Ki in assay [1] and in assay [2] was more than 10 µM each time.
Take `COCCCCOc1ccc2cc(-c3noc([C@@H]4CCCN4C(=N)N)n3)ccc2c1` [Compound 65A, (S)-amino(2-(3-(6-(4-methoxybutoxy)naphthalen-2-yl)-1,2,4-oxadiazol-5-yl)pyrrolidin-1-yl)methaniminium chloride]: the Ki in assay [1] and in assay [2] was more than 10 µM each time.
Take `N=C(N)N1CCC[C@H]1c1nc(-c2ccc3cc(OCC4CCCC4)ccc3c2)no1` [Compound 66A, (S)-amino(2-(3-(6-(cyclopentylmethoxy)naphthalen-2-yl)-1,2,4-oxadiazol-5-yl)pyrrolidin-1-yl)methaniminium chloride]: the Ki in assay [1] and in assay [2] was more than 10 µM throughout.
In the case of `N=C(N)N1CCC[C@H]1c1nc(-c2ccc3cc(OCc4cccc(C(F)(F)F)c4)ccc3c2)no1` [Compound 67A, (S)-amino(2-(3-(6-((3-(trifluoromethyl)benzyl)oxy)naphthalen-2-yl)-1,2,4-oxadiazol-5-yl)pyrrolidin-1-yl)methaniminium chloride], the Ki was more than 10 µM in assay [1] and 1 to 10 µM in assay [2].
For the compound `N=C(N)N1CCC[C@H]1c1nc(-c2ccc3cc(OCc4cccc(Cl)c4)ccc3c2)no1` [Compound 68A, (S)-amino(2-(3-(6-((3-chlorobenzyl)oxy)naphthalen-2-yl)-1,2,4-oxadiazol-5-yl)pyrrolidin-1-yl)methaniminium chloride], the inhibition constant Ki in assay [1] and in assay [2] was more than 10 µM in each case.
Consider `N=C(N)N1CCC[C@H]1c1nc(-c2ccc3cc(OCc4ccc(Cl)cc4)ccc3c2)no1` [Compound 69A, (S)-amino(2-(3-(6-((4-chlorobenzyl)oxy)naphthalen-2-yl)-1,2,4-oxadiazol-5-yl)pyrrolidin-1-yl)methaniminium chloride], for which the inhibition constant (Ki) in assay [1] and in assay [2] was more than 10 µM throughout.
`N#Cc1ccc(COc2ccc3cc(-c4noc([C@@H]5CCCN5C(=N)N)n4)ccc3c2)cc1` [Compound 70A, (S)-amino(2-(3-(6-((4-cyanobenzyl)oxy)naphthalen-2-yl)-1,2,4-oxadiazol-5-yl)pyrrolidin-1-yl)methaniminium chloride]: the inhibitory constant (Ki) is more than 10 µM in assay [1] and 1 to 10 µM in assay [2].
For `N=C(N)N1CCC[C@H]1c1nc(-c2ccc3cc(OCc4ccc(-c5ccccc5)cc4)ccc3c2)no1` [Compound 72A, (S)-(2-(3-(6-([1,1′-biphenyl]-4-ylmethoxy)naphthalen-2-yl)-1,2,4-oxadiazol-5-yl)pyrrolidin-1-yl)(amino)methaniminium chloride], in that order: more than 10 µM and 1 to 10 µM.
In the case of `N=C(N)N1CCC[C@H]1c1nc(-c2ccc3cc(OCc4ccccc4)ccc3c2)no1` [Compound 73A, (S)-amino(2-(3-(6-(benzyloxy)naphthalen-2-yl)-1,2,4-oxadiazol-5-yl)pyrrolidin-1-yl)methaniminium chloride], the Ki in assay [1] and in assay [2] was more than 10 µM in each case.
With `CCCCCCCCn1cc(-c2noc([C@@H]3CCCN3C(=N)N)n2)c2ccccc21` [Compound 74A, (S)-amino(2-(3-(1-octyl-1H-indol-3-yl)-1,2,4-oxadiazol-5-yl)pyrrolidin-1-yl)methaniminium chloride], the Ki was more than 10 µM in assay [1] and 1 to 10 µM in assay [2].
As to `CCCCCCCCn1ccc2ccc(-c3noc([C@@H]4CCCN4C(=N)N)n3)cc21` [Compound 75A, (S)-amino(2-(3-(1-octyl-1H-indol-6-yl)-1,2,4-oxadiazol-5-yl)pyrrolidin-1-yl)methaniminium chloride], the inhibition constant Ki in assay [1] and in assay [2] was more than 10 µM each time.
Take `N=C(N)N1CCC[C@H]1c1nc(-c2ccc(CCC3CCCCC3)c(C(F)(F)F)c2)no1` [Compound 76A, (S)-amino(2-(3-(4-(2-cyclohexylethyl)-3-(trifluoromethyl)phenyl)-1,2,4-oxadiazol-5-yl)pyrrolidin-1-yl)methaniminium 2,2,2-trifluoroacetate]: the inhibition constant Ki in assay [1] is more than 10 µM; in assay [2], less than 1 µM.
`C=CCOc1ccc(-c2noc([C@@H]3CCCN3C(=N)N)n2)cc1C(F)(F)F` [Compound 77A, (S)-2-(3-(4-(allyloxy)-3-(trifluoromethyl)phenyl)-1,2,4-oxadiazol-5-yl)pyrrolidine-1-carboximidamide hydrochloride]: the Ki in assay [1] and in assay [2] was more than 10 µM in each case.
`CCCC/C=C/COc1ccc(-c2noc([C@@H]3CCCN3C(=N)N)n2)cc1C(F)(F)F` [Compound 78A, (S,E)-amino(2-(3-(4-(hept-2-en-1-yloxy)-3-(trifluoromethyl)phenyl)-1,2,4-oxadiazol-5-yl)pyrrolidin-1-yl)methaniminium 2,2,2-trifluoroacetate]: the inhibition constant Ki in assay [1] was more than 10 µM; in assay [2], less than 1 µM.
Regarding `C=CCCOc1ccc(-c2noc([C@@H]3CCCN3C(=N)N)n2)cc1C(F)(F)F` [Compound 79A, (S)-2-(3-(4-(but-3-en-1-yloxy)-3-(trifluoromethyl)phenyl)-1,2,4-oxadiazol-5-yl)pyrrolidine-1-carboximidamide hydrochloride], the inhibition constant Ki in assay [1] and in assay [2] was more than 10 µM throughout.
On to `CCCC=CCOc1ccc(-c2noc([C@@H]3CCCN3C(=N)N)n2)cc1C(F)(F)F` [Compound 80A, (S)-amino(2-(3-(4-(hex-2-en-1-yloxy)-3-(trifluoromethyl)phenyl)-1,2,4-oxadiazol-5-yl)pyrrolidin-1-yl)methaniminium 2,2,2-trifluoroacetate], for which the values for the Ki in assay [1] and in assay [2] were more than 10 µM and 1 to 10 µM, respectively.
For `CCCCC=CCOc1ccc(-c2noc([C@@H]3CCCN3C(=N)N)n2)cc1C(F)(F)F` [Compound 81A, (S)-amino(2-(3-(4-(hept-2-en-1-yloxy)-3-(trifluoromethyl)phenyl)-1,2,4-oxadiazol-5-yl)pyrrolidin-1-yl)methaniminium 2,2,2-trifluoroacetate], the values for the Ki in assay [1] and in assay [2] were more than 10 µM and less than 1 µM, respectively.
For `CCCCCC=CCOc1ccc(-c2noc([C@@H]3CCCN3C(=N)N)n2)cc1C(F)(F)F` [Compound 82A, (S)-amino(2-(3-(4-(oct-2-en-1-yloxy)-3-(trifluoromethyl)phenyl)-1,2,4-oxadiazol-5-yl)pyrrolidin-1-yl)methaniminium 2,2,2-trifluoroacetate], in that order: more than 10 µM and less than 1 µM.
In the case of `CCC/C=C\CCOc1ccc(-c2noc([C@@H]3CCCN3C(=N)N)n2)cc1C(F)(F)F` [Compound 84A, (S,Z)-amino(2-(3-(4-(hept-3-en-1-yloxy)-3-(trifluoromethyl)phenyl)-1,2,4-oxadiazol-5-yl)pyrrolidin-1-yl)methaniminium 2,2,2-trifluoroacetate], the Ki in assay [1] is more than 10 µM; in assay [2] it was less than 1 µM.
For `CCCC/C=C\CCOc1ccc(-c2noc([C@@H]3CCCN3C(=N)N)n2)cc1C(F)(F)F` [Compound 85A, (S,Z)-amino(2-(3-(4-(oct-3-en-1-yloxy)-3-(trifluoromethyl)phenyl)-1,2,4-oxadiazol-5-yl)pyrrolidin-1-yl)methaniminium 2,2,2-trifluoroacetate], in that order: more than 10 µM and less than 1 µM.
For `N=C(N)N1CCC[C@H]1c1nc(-c2ccc(OC/C=C/c3cccc(Br)c3)c(C(F)(F)F)c2)no1` [Compound 86A, (S,E)-2-(3-(4-((3-(3-bromophenyl)allyl)oxy)-3-(trifluoromethyl)phenyl)-1,2,4-oxadiazol-5-yl)pyrrolidine-1-carboximidamide hydrochloride], in that order: more than 10 µM and less than 1 µM.
For `N=C(N)N1CCC[C@H]1c1nc(-c2ccc(OC/C=C/c3ccc(F)cc3)c(C(F)(F)F)c2)no1` [Compound 87A, (S,E)-2-(3-(4-((3-(4-fluorophenyl)allyl)oxy)-3-(trifluoromethyl)phenyl)-1,2,4-oxadiazol-5-yl)pyrrolidine-1-carboximidamide hydrochloride], in that order: more than 10 µM and less than 1 µM.
